From PubChem BioAssay (NCI)
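1) Cells in 96-well plates. 2) Compound, 48 h, 5 concentrations. 3) Linear interpolation between surrounding doses. 4) Unreached endpoint = highest concentration. TGI is the concentration that stops growth completely.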

How the values were obtained:
Test in all cases: inhibition of tumour cell growth, NCI panel, 48 h
KM20L2 colon = system: KM20L2 colon
A549 NSCLC = system: A549 NSCLC
HCC-2998 colon = system: HCC-2998 colon
IGROV1 ovarian = system: IGROV1 ovarian
SK-MEL-5 melanoma = system: SK-MEL-5 melanoma
HOP-62 NSCLC = system: HOP-62 NSCLC
U251 CNS = system: U251 CNS
OVCAR-3 ovarian = system: OVCAR-3 ovarian
786-0 renal = system: 786-0 renal
SF-539 CNS = system: SF-539 CNS
DLD-1 colon = system: DLD-1 colon
XF 498 CNS = system: XF 498 CNS
CCRF-CEM leukemia = system: CCRF-CEM leukemia
SK-OV-3 ovarian = system: SK-OV-3 ovarian
K-562 leukemia = system: K-562 leukemia
SN12C renal = system: SN12C renal
EKVX NSCLC = system: EKVX NSCLC
TK-10 renal = system: TK-10 renal
CAKI-1 renal = system: CAKI-1 renal
MALME-3M melanoma = system: MALME-3M melanoma
LXFL 529 NSCLC = system: LXFL 529 NSCLC
KM12 colon = system: KM12 colon
LOX IMVI melanoma = system: LOX IMVI melanoma
COLO 205 colon = system: COLO 205 colon
UACC-62 melanoma = system: UACC-62 melanoma
SK-MEL-2 melanoma = system: SK-MEL-2 melanoma
OVCAR-4 ovarian = system: OVCAR-4 ovarian
M14 melanoma = system: M14 melanoma
HCT-15 colon = system: HCT-15 colon
ACHN renal = system: ACHN renal
UO-31 renal = system: UO-31 renal
SF-295 CNS = system: SF-295 CNS
DMS 273 small cell lung = system: DMS 273 small cell lung
HT29 colon = system: HT29 colon
OVCAR-8 ovarian = system: OVCAR-8 ovarian
M19-MEL melanoma = system: M19-MEL melanoma
SNB-19 CNS = system: SNB-19 CNS
HOP-18 NSCLC = system: HOP-18 NSCLC
HOP-92 NSCLC = system: HOP-92 NSCLC
SK-MEL-28 melanoma = system: SK-MEL-28 melanoma
SNB-75 CNS = system: SNB-75 CNS
HCT-116 colon = system: HCT-116 colon
DMS 114 small cell lung = system: DMS 114 small cell lung
RXF-631 renal = system: RXF-631 renal
NCI-H522 lung = system: NCI-H522 lung
NCI-H460 lung = system: NCI-H460 lung
RPMI-8226 leukemia = system: RPMI-8226 leukemia
SF-268 CNS = system: SF-268 CNS
NCI-H23 lung = system: NCI-H23 lung
SNB-78 CNS = system: SNB-78 CNS
SW-620 colon = system: SW-620 colon
SR leukemia = system: SR leukemia
A498 renal = system: A498 renal
UACC-257 melanoma = system: UACC-257 melanoma
RXF 393 renal = system: RXF 393 renal
OVCAR-5 ovarian = system: OVCAR-5 ovarian
HL-60(TB) leukemia = system: HL-60(TB) leukemia
MOLT-4 leukemia = system: MOLT-4 leukemia
NCI-H226 lung = system: NCI-H226 lung

Measured: TGI

C=C1C(=O)O[C@H]2[C@H]1[C@H](OC(=O)/C(C)=C\C)CC(=C)[C@@H]1[C@H](O)[C@H]3O[C@@]3(C)[C@@]12O
> 100 µM: KM20L2 colon | A549 NSCLC | HCC-2998 colon | IGROV1 ovarian | SK-MEL-5 melanoma | HOP-62 NSCLC | U251 CNS | OVCAR-3 ovarian | 786-0 renal | SF-539 CNS | DLD-1 colon | XF 498 CNS | CCRF-CEM leukemia | SK-OV-3 ovarian | K-562 leukemia | SN12C renal | EKVX NSCLC | TK-10 renal | CAKI-1 renal | MALME-3M melanoma | LXFL 529 NSCLC | KM12 colon | LOX IMVI melanoma | COLO 205 colon | UACC-62 melanoma | SK-MEL-2 melanoma | OVCAR-4 ovarian | M14 melanoma | HCT-15 colon | ACHN renal | UO-31 renal | SF-295 CNS | DMS 273 small cell lung | HT29 colon | OVCAR-8 ovarian | M19-MEL melanoma | SNB-19 CNS | HOP-18 NSCLC | HOP-92 NSCLC | SK-MEL-28 melanoma | SNB-75 CNS | HCT-116 colon | DMS 114 small cell lung | RXF-631 renal | NCI-H522 lung | NCI-H460 lung | RPMI-8226 leukemia | SF-268 CNS | NCI-H23 lung | SNB-78 CNS | SW-620 colon | SR leukemia

N#C/C(=C1\OC(=O)C(c2ccc(Br)cc2)=C1O)c1ccc(Br)cc1
25.6 µM: XF 498 CNS | NCI-H522 lung
34.5 µM: COLO 205 colon | HT29 colon
30.7 µM: LOX IMVI melanoma
28.9 µM: HCC-2998 colon | A498 renal
27.9 µM: 786-0 renal
25.9 µM: UACC-62 melanoma | DMS 114 small cell lung
43.6 µM: RPMI-8226 leukemia
30 µM: SF-539 CNS | HOP-92 NSCLC
26.2 µM: NCI-H23 lung
34.3 µM: OVCAR-4 ovarian
29.5 µM: UACC-257 melanoma | SF-268 CNS
34 µM: NCI-H226 lung
28.4 µM: M14 melanoma
92.6 µM: RXF-631 renal
22.1 µM: LXFL 529 NSCLC
23.6 µM: SN12C renal
33.3 µM: HOP-62 NSCLC
26.3 µM: HOP-18 NSCLC
31.5 µM: KM20L2 colon
33.2 µM: OVCAR-5 ovarian
55.6 µM: SR leukemia
31.6 µM: EKVX NSCLC
61.7 µM: K-562 leukemia
29.6 µM: ACHN renal
31.1 µM: M19-MEL melanoma
30.4 µM: NCI-H460 lung
32.4 µM: SNB-75 CNS | HCT-116 colon
24.6 µM: OVCAR-8 ovarian
57.1 µM: MOLT-4 leukemia
48.2 µM: DMS 273 small cell lung
28.2 µM: OVCAR-3 ovarian | SNB-78 CNS
36.7 µM: TK-10 renal
32.8 µM: SF-295 CNS
44.2 µM: A549 NSCLC
26.1 µM: U251 CNS
35.6 µM: CAKI-1 renal
31.7 µM: SK-MEL-28 melanoma
34.6 µM: DLD-1 colon
34.4 µM: IGROV1 ovarian
27.3 µM: SW-620 colon
26.7 µM: RXF 393 renal
27.5 µM: SNB-19 CNS
51.1 µM: CCRF-CEM leukemia
39.9 µM: SK-OV-3 ovarian
44.6 µM: HL-60(TB) leukemia
31 µM: MALME-3M melanoma
28.5 µM: KM12 colon | UO-31 renal

CN(C(=O)C12C3C4C5C3C1(C(=O)O)C5C42)C(C)(C)C (configuration not stated)
33.5 µM: DMS 273 small cell lung
55.2 µM: DLD-1 colon
> 100 µM: KM20L2 colon | A549 NSCLC | HCC-2998 colon | A498 renal | IGROV1 ovarian | SK-MEL-5 melanoma | UACC-257 melanoma | HOP-62 NSCLC | U251 CNS | OVCAR-3 ovarian | 786-0 renal | SF-539 CNS | XF 498 CNS | CCRF-CEM leukemia | SK-OV-3 ovarian | K-562 leukemia | SN12C renal | EKVX NSCLC | TK-10 renal | CAKI-1 renal | MALME-3M melanoma | LXFL 529 NSCLC | KM12 colon | UACC-62 melanoma | SK-MEL-2 melanoma | OVCAR-4 ovarian | M14 melanoma | OVCAR-5 ovarian | HCT-15 colon | ACHN renal | UO-31 renal | SF-295 CNS | HT29 colon | OVCAR-8 ovarian | M19-MEL melanoma | SNB-19 CNS | MOLT-4 leukemia | HOP-18 NSCLC | HOP-92 NSCLC | SK-MEL-28 melanoma | SNB-75 CNS | HCT-116 colon | RXF-631 renal | NCI-H522 lung | NCI-H460 lung | RPMI-8226 leukemia | SF-268 CNS | NCI-H23 lung | SNB-78 CNS | SR leukemia | NCI-H226 lung
32 µM: HL-60(TB) leukemia
65.1 µM: LOX IMVI melanoma
72.6 µM: DMS 114 small cell lung
72.3 µM: COLO 205 colon
60.8 µM: SW-620 colon

CC1=NOC(=O)/C1=C/c1ccccc1O
73.9 µM: SW-620 colon
> 100 µM: KM20L2 colon | A549 NSCLC | HCC-2998 colon | IGROV1 ovarian | SK-MEL-5 melanoma | UACC-257 melanoma | HOP-62 NSCLC | U251 CNS | OVCAR-3 ovarian | 786-0 renal | SF-539 CNS | DLD-1 colon | XF 498 CNS | CCRF-CEM leukemia | SK-OV-3 ovarian | K-562 leukemia | SN12C renal | EKVX NSCLC | TK-10 renal | CAKI-1 renal | MALME-3M melanoma | LXFL 529 NSCLC | KM12 colon | LOX IMVI melanoma | COLO 205 colon | UACC-62 melanoma | SK-MEL-2 melanoma | OVCAR-4 ovarian | M14 melanoma | OVCAR-5 ovarian | HCT-15 colon | ACHN renal | UO-31 renal | SF-295 CNS | DMS 273 small cell lung | HL-60(TB) leukemia | HT29 colon | OVCAR-8 ovarian | M19-MEL melanoma | SNB-19 CNS | MOLT-4 leukemia | HOP-18 NSCLC | HOP-92 NSCLC | SK-MEL-28 melanoma | SNB-75 CNS | HCT-116 colon | DMS 114 small cell lung | RXF-631 renal | NCI-H522 lung | NCI-H460 lung | SF-268 CNS | NCI-H23 lung | SNB-78 CNS | SR leukemia | NCI-H226 lung
